Data as given in paper PMC10817170, “Effect of an NHE3 inhibitor in combination with an NPT2b inhibitor on gastrointestinal phosphate absorption in Rodent models” (PLOS ONE, 2024).
“And” between values parts separate entries of the source, which are not always exact repeats. Equal entries are not always repeated.

What was measured:
[1] = test system: acute phosphate uptake into plasma; parameters: method as in PMID 35194979; settings: mice; cited from earlier work
[2] = test system: intestinal phosphate absorption; assay: Phosphate absorption in rats: 33P in plasma (15 min) and recovered in gastrointestinal tract (4 h), single agents and combination; format: in vivo; settings: 0.4 mg/kg LY3304000, 10 mg/kg LY3358966 or both
Procedure: We also evaluated the effect of LY3304000 and LY3358966 in combination on phosphate absorption in rats by measuring radioactive phosphate recovered in either plasma or the gastrointestinal (GI) tract. In this combination study, two vehicles were used. One is 1% HEC vehicle for making LY3304000 dosing solution, another is 0.46% PVP-VA vehicle contained in LY3358966 SDD. To make the LY3358966 dosing solution, an appropriate amount of LY3358966-SDD was weighed for a 10 mg/kg API dosing solution with 5 mL/kg dosing volume and dissolved in water. To make the LY3304000 dosing solution, an appropriate amount of LY3304000 was weighed for a 0.4 mg/kg dosing solution with 5 mL/kg dosing volume and dissolved in 1% HEC. The Radiolabeled Phosphate Dosing Solutions was made as described above. Following 4-hour fasting with access to water, male SD rats were orally dosed at 10 mL/kg with either two vehicles, an LY3358966 dosing solution and 1% HEC vehicle, an LY3304000 dosing solution and 0.46% PVP-VA vehicle, or an LY3304000 and LY3358966 dosing solutions, combined 1:1 by volume. Fifteen minutes later, Radiolabeled Phosphate Dosing Solution was orally dosed in a 2 mL volume. Fifteen minutes after the radiolabeled phosphate dose, blood was collected by retro orbital bleeding, and plasma was prepared. Radioactivity (dpm) in 20-μL plasma was measured by scintillation counting. The mole amount of phosphate uptake in the plasma was calculated as described above. Four hours post radioactive phosphate dose, the animals were sacrificed by asphyxiation with CO2 followed by cervical dislocation and then the stomach, small intestine, large intestine, and feces were collected and weighed. The tissues and feces were digested in 20 mL or 10 mL of 1 N NaOH, respectively, overnight at 37°C. A 100 μL sample of the homogenates were dispensed into scintillation vials and mixed with 10 mL of Optiphase Supermax scintillation fluid (PerkinElmer), and radioactivity (dpm) was measured by scintillation counting. Very little radioactivity was detected in the feces at 4 hours post radioactive phosphate dose. The percentage of radiolabeled phosphate recovered in the gastrointestinal tissue was defined as radioactivity (dpm) recovered in each fraction compared to the amount of radioactivity (dpm) administered. The mole amount of phosphate uptake into plasma in vehicle and LY3358966 and LY3304000 alone groups were compared to the LY3358966 and LY3304000 combination group using One-way ANOVA with Dunnett’s multiple comparisons. Percent recovery of ^33P phosphate in the rat gastrointestinal tract was analyzed by two-way analysis of variance (ANOVA) in JMP 12.1 to test for additivity of the effects of LY3304000 and LY3358966 on inhibiting phosphate absorption.

[3] = test system: acute phosphate uptake into plasma; parameters: method as in PMID 35194979; settings: rats; cited from earlier work
[4] = test system: acute phosphate uptake into plasma; assay: Acute phosphate uptake in rats, LY3304000 with fixed 1.2 mg/kg LY3358966; format: in vivo; settings: 1.2 mg/kg LY3358966 alone
Procedure: NHE3 inhibitor LY3304000 and NPT2b inhibitor LY3358966 SDD were used in combination to assess their effect on phosphate absorption in rats. To make the LY3358966 dosing solution, an appropriate amount of LY3358966 SDD was weighed for a 1.2 mg/kg API dosing solution with 10 mL/kg dosing volume and dissolved in water. To make the LY3304000 dosing solution, an appropriate amount of LY3304000 was weighed for a 10 mg/kg dose with 10 mL/kg dosing volume and dissolved in 1% HEC vehicle. The subsequent dosing solutions for 3, 1, 0.3, 0.1, 0.03, 0.01, 0.003, and 0.001 mg/kg LY3304000 were prepared by serial dilutions with 1% HEC. Following 12-hour fasting, male SD rats were orally dosed at 10 mL/kg with 1% HEC vehicle, 1.2 mg/kg LY3358966 or increasing doses of LY3304000 with a fixed, 1.2 mg/kg dose of LY3358966. In the vehicle group, the animals were dosed first with 1% HEC immediately followed by water. In the LY3358966 alone group, the animals were first dosed with 1% HEC immediately followed by LY3358966. In the combination groups, the animals were dosed first with LY3304000 immediately followed by LY3358966. Fifteen minutes later, 2 mL Radiolabeled Phosphate Dosing Solution was orally dosed. Fifteen minutes later, blood was collected by cardiac stick, and plasma was prepared. Radioactivity (dpm) in 50-μL plasma was measured by scintillation counting. To measure the total radioactivity dosed to each rat, the radioactivity in two 10-μL samples of the Radiolabeled Phosphate Dosing Solutions was measured by scintillation counting. The mole amount of phosphate uptake was calculated as described above to determine acute phosphate uptake.

[5] = test system: acute phosphate uptake into plasma; parameters: method as in PMID 34978760; settings: cited from earlier work
[6] = test system: phosphate absorption; parameters: method as in PMID 30158152; settings: cited from earlier work

| SMILES | decrease of acute uptake of radiolabeled phosphate into plasma [1] | phosphate uptake into plasma ([2]; 15 min post 33P phosphate, vehicle 166, mean ± SEM, n=8) | inhibition of phosphate uptake into plasma ([2]; 15 min post 33P phosphate, versus vehicle) | percentage of radiolabeled phosphate recovered, Feces ([2]; 4 h) | percentage of radiolabeled phosphate recovered, Large Intestine ([2]; 4 h) | percentage of radiolabeled phosphate recovered, Small Intestine ([2]; 4 h) | percentage of radiolabeled phosphate recovered, Stomach ([2]; 4 h) | percentage of 33P recovered in GI tract, total ([2]; 4 h post 33P phosphate, stomach, small intestine, large intestine and feces, vehicle 25%) | inhibition of acute phosphate uptake [3] | phosphate uptake, % of the vehicle control [4] | phosphate uptake into plasma ([4]; vehicle 710 nmoles) | effect on plasma 33P-phosphate in NHE3 knockout mice ([5]; 60 minutes after dosing 33P-phosphate) | 33P-phosphate levels in plasma, lower than vehicle ([5]; mice, 5 minutes post phosphate dose) | 33P-phosphate levels in plasma, elevated versus vehicle ([5]; mice, 60 min post phosphate dose) | effect on phosphate absorption [6] |
| --- | --- | --- | --- | --- | --- | --- | --- | --- | --- | --- | --- | --- | --- | --- | --- |
| CC1(C)CN(C(=O)NCCCCO)CCN1Cc1cccc(C(=O)Nc2sc3c(c2C(=O)Nc2cc(F)c(CCc4ccc(C(=O)O)cc4)c(F)c2)CCCC3)c1 [LY3358966] | over 70% | 108 nmol | 35% | <0.1% | 18.43 +/- 2.03% | 8.98 +/- 0.48% | 4.86 +/- 1.13% | 32 ± 1% and 32% and 32.27 +/- 1.38% | 20–30% | 71% | 504 nmol | – | – | – | – |
| CN1Cc2c(Cl)cc(Cl)cc2[C@H](c2cccc(S(=O)(=O)NCCOCCOCCNC(=O)NCCCCNC(=O)NCCOCCOCCNS(=O)(=O)c3cccc([C@@H]4CN(C)Cc5c(Cl)cc(Cl)cc54)c3)c2)C1 [tenapanor] | – | – | – | – | – | – | – | – | – | – | – | no effect | about 67% | about 50% | little effect |
